Like-named read-outs stand apart in the source and are kept apart here. A value given as a limit tells only on which side of the number the result lay.

Results on 2 compounds are retold here after patent US11414385B2, “Compounds and methods for treating, detecting, and identifying compounds to treat apicomplexan parasitic diseases” (The University of Chicago, priority 2015, dated 2022).

This assay has as its system T. gondii tachyzoites (RH-YFP strain). Put plainly: In vitro challenge assay for Toxoplasma tachyzoites (RH-YFP in HFF, fluorescence). The format is cell-based, Toxoplasma gondii. The gist of the method: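 Confluent HFF monolayers infected with 3200 RH-YFP tachyzoites for 1-2 h, then compounds added (screen at 10 μM-10 nM; follow-up 1 μM-31.25 nM) and incubated 72 h at 37 °C. YFP fluorescence served as the measure of parasite burden; IC50 by graphical analysis.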

Where [1] appears, read: Toxoplasma gondii, RH-YFP, read-out: Tachy IC50.

In the case of `Cc1[nH]c2c(c(=O)c1-c1ccc(Oc3ccc(OC(F)(F)F)cc3)cc1)CCCC2` [JAG21, 2-methyl-3-(4-(4-(trifluoromethoxy)phenoxy)phenyl)-5,6,7,8-tetrahydroquinolin-4(1H)-one], the IC50 was 188 nM (Toxoplasma gondii, read-out: IC50 against tachyzoites / active infection) and 90 nM under setting [1]. For the same compound, for the setting “Toxoplasma gondii, read-out: IC 90 against Toxoplasma gondii tachyzoites”, the IC90 was under 125 nM.
Consider `Cc1[nH]c2c(c(=O)c1-c1ccc(Oc3ccccc3)cc1)CCCC2` [MJM170], for which the IC50 by setting is: (Toxoplasma gondii, RH-YFP strain, read-out: T. gondii Tachyzoite IC50) 30 nM; under setting [1], 30 nM. The “reduction of RH YFP tachyzoites in tissue culture” value (low nanoM levels) is “markedly reduces RH YFP tachyzoites”.
